This assay deals with T1, human active recombinant p38α-6His tagged (Homo sapiens, UniProt Q16539).
T1 construct: 6His
The assay can be described thus: p38 Alpha Enzyme Assay (AlphaScreen, biotinylated-ATF2 substrate). The assay is classed as biochemical. Particulars: pre-incubated 4 hours at 37° C., reaction initiated with ATP; 0.5 nM enzyme; read-out: p38 pIC50 (converted). How it is done:
The ability of the compounds of formula (I) to inhibit p38 kinase may be determined using the following biological assay:
Enzyme assays were performed in polypropylene 96 well plates. The following solutions were added to each well; 10 μL of compound dilutions in assay buffer (20 mM HEPES pH 7.4, containing 20 mM magnesium acetate, 0.005% (w/v) Tween-20, 10 mM DTT) containing 1% (v/v) DMSO or assay buffer containing 1% (v/v) DMSO alone, 70 μL of assay buffer containing 36 nM substrate (biotinylated-ATF2) and 10 μL of an appropriate dilution of human active recombinant p38α-6His tagged. Depending on batch of p38, an appropriate dilution was typically a 5 nM solution to give a final enzyme concentration of 0.5 nM. At this stage, background control wells also received 50 μL of AlphaScreen quench buffer (10 mM HEPES pH 7.4 containing 100 mM EDTA, 0.2% (w/v) bovine serum albumin). The plate was covered, pre-incubated for 4 hours at 37° C. and the enzyme reaction initiated by addition of 10 μL 1 mM ATP. After incubation for a further 45 minutes at 37° C., the reaction was stopped by addition of 50 μL quench reagent and 50 μL of the quenched reaction mixture transferred to an opaque, white 96-well plate. Detection reagent, 25 μL of 10 mM HEPES pH 7.4 containing 100 mM EDTA, 0.2% (w/v) bovine serum albumin, 0.3 nM anti phosphoATF2 antibody and 25 μg/mL of ‘AlphaScreen protein A acceptor and donor beads’ (PerkinElmer Inc.), was added to all wells in a darkened room, the plate sealed and left in the dark for at least 5 hours before AlphaScreen readings were taken using a Perkin Elmer EnVision reader. Total, uninhibited activity was determined from assays performed in each assay plate. The mean control in the absence of p38 activity was subtracted from each well. Data were expressed as percent inhibition of total activity using equation 1. Percent Inhibition=100*(1−Test/Control) Eq.1 Where . . . . • Test=p38 kinase activity in the presence of compound • Control=p38 kinase activity in the absence of compound.
pIC50 is defined as the logarithm of the reciprocal of the concentration of compound required for 50% reduction in total p38 kinase activity.
(In general: Alpha assays give light when donor and acceptor beads are brought close together.)

The structures appear in SMILES notation.

T1 sequence (Q16539 whole entry): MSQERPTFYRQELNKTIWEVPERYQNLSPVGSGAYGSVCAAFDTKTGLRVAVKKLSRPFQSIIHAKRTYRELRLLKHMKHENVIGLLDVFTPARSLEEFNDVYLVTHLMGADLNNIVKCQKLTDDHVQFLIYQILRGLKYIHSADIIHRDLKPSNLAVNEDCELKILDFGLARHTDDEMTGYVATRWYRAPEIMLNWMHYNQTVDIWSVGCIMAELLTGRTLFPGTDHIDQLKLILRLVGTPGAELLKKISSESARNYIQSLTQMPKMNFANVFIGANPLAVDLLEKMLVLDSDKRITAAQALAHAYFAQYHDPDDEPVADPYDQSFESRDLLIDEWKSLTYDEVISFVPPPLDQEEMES

In the case of `Cc1ccc(C(=O)NC2CC2)cc1-c1ccc2c(=O)n(Cc3ccc(CNC(C)(C)C)cc3)ccc2c1` [Example 28, 3-(2-(4-((Tert-butylamino)methyl)benzyl)-1-oxo-1,2-dihydroisoquinolin-6-yl)-N-cyclopropyl-4-methylbenzamide], the IC50 was 1 nM. `Cc1ccc(C(=O)NC2CC2)cc1-c1ccc2c(=O)n(Cc3ccc(OCCCN(C)C)nc3)ccc2c1` [Example 29, N-Cyclopropyl-3-(2-((6-(3-(dimethylamino)propoxy)pyridin-3-yl)methyl)-1-oxo-1,2-dihydroisoquinolin-6-yl)-4-methylbenzamide]: the IC50 is 1.58 nM. Turning to `Cc1ccc(C(=O)NC2CC2)cc1-c1ccc2c(=O)n(Cc3ccc(OCCN(C)C)nc3)ccc2c1` [Example 30, N-Cyclopropyl-3-(2-((6-(2-(dimethylamino)ethoxy)pyridin-3-yl)methyl)-1-oxo-1,2-dihydroisoquinolin-6-yl)-4-methylbenzamide], the IC50 is 1 nM. As for `Cc1ccc(C(=O)NC2CC2)cc1-c1ccc2c(=O)n(Cc3ccc(OCCN4CCCC4)nc3)ccc2c1` [Example 31, N-Cyclopropyl-4-methyl-3-(1-oxo-2-((6-(2-(pyrrolidin-1-yl)ethoxy)pyridin-3-yl)methyl)-1,2-dihydroisoquinolin-6-yl)benzamide], the figure is 0.631 nM; as for `Cc1ccc(C(=O)NC2CC2)cc1-c1ccc2c(=O)n(Cc3ccc(OCCN(C)C)cc3)ccc2c1` [Example 32, N-Cyclopropyl-3-(2-(4-(2-(dimethylamino)ethoxy)benzyl)-1-oxo-1,2-dihydroisoquinolin-6-yl)-4-methylbenzamide], 0.501 nM; as for `Cc1ccc(C(=O)NC2CC2)cc1-c1ccc2c(=O)n(Cc3cccc(OCCN4CCCC4)c3)ccc2c1` [Example 33, N-Cyclopropyl-4-methyl-3-{1-oxo-2-[3-(2-pyrrolidin-1-ylethoxy)benzyl]-1,2-dihydroisoquinolin-6-yl}benzamide], 2 nM. For the molecule `CNCCOc1cccc(Cn2ccc3cc(-c4cc(C(=O)NC5CC5)ccc4C)ccc3c2=O)c1` [Example 34, N-Cyclopropyl-4-methyl-3-(2-{3-[2-(methylamino)ethoxy]benzyl}-1-oxo-1,2-dihydroisoquinolin-6-yl)benzamide], the IC50 is 2.51 nM.

For the molecule `Cc1ccc(C(=O)NC2CC2)cc1-c1ccc2c(=O)n(Cc3cccc(OCCNCCO)c3)ccc2c1` [Example 35, N-Cyclopropyl-3-[2-(3-{2-[(2-hydroxyethyl)amino]ethoxy}benzyl)-1-oxo-1,2-dihydroisoquinolin-6-yl]-4-methylbenzamide], the IC50 is 2 nM. Next, `CNCCOc1ccc(Cn2ccc3cc(-c4cc(C(=O)NC5CC5)ccc4C)ccc3c2=O)cc1` [Example 36, N-Cyclopropyl-4-methyl-3-(2-(4-(2-(methylamino)ethoxy)benzyl)-1-oxo-1,2-dihydroisoquinolin-6-yl)benzamide]: 0.398 nM; `Cc1ccc(C(=O)NC2CC2)cc1-c1ccc2c(=O)n(CC3CC3)cc(C(=O)N3CC[C@@H](N)C3)c2c1` [Example 37, (R)-3-(4-(3-Aminopyrrolidine-1-carbonyl)-2-(cyclopropylmethyl)-1-oxo-1,2-dihydroisoquinolin-6-yl)-N-cyclopropyl-4-methylbenzamide]: 3.98 nM; `Cc1ccc(C(=O)NC2CC2)cc1-c1ccc2c(=O)n(CC3CC3)cc(C(=O)NC3CCN(C)CC3)c2c1` [Example 38, 6-(5-(Cyclopropylcarbamoyl)-2-methylphenyl)-2-(cyclopropylmethyl)-N-(1-methylpiperidin-4-yl)-1-oxo-1,2-dihydroisoquinoline-4-carboxamide]: 3.98 nM. Next, `Cc1ccc(C(=O)NC2CC2)cc1-c1ccc2c(=O)n(CC3CC3)cc(C(=O)N3CCN(C)CC3)c2c1` [Example 39, N-Cyclopropyl-3-(2-(cyclopropylmethyl)-4-(4-methylpiperazine-1-carbonyl)-1-oxo-1,2-dihydroisoquinolin-6-yl)-4-methylbenzamide]: 5.01 nM. Next, `Cc1ccc(C(=O)NC2CC2)cc1-c1ccc2c(=O)n(CC3CC3)cc(C(=O)NCCN(C)C)c2c1` [Example 40, 6-(5-(Cyclopropylcarbamoyl)-2-methylphenyl)-2-(cyclopropylmethyl)-N-(2-(dimethylamino)ethyl)-1-oxo-1,2-dihydroisoquinoline-4-carboxamide]: 3.98 nM; `Cc1ccc(C(=O)NC2CC2)cc1-c1ccc2c(=O)n(CC3CC3)cc(C(=O)NC3CCNCC3)c2c1` [Example 41, 6-(5-(Cyclopropylcarbamoyl)-2-methylphenyl)-2-(cyclopropylmethyl)-1-oxo-N-(piperidin-4-yl)-1,2-dihydroisoquinoline-4-carboxamide]: 1.58 nM; `Cc1ccc(C(=O)NC2CC2)cc1-c1ccc2c(=O)n(CC3CC3)cc(C(=O)N3CCC(N)CC3)c2c1` [Example 42, 3-(4-(4-Aminopiperidine-1-carbonyl)-2-(cyclopropylmethyl)-1-oxo-1,2-dihydroisoquinolin-6-yl)-N-cyclopropyl-4-methylbenzamide]: 1.26 nM. With `Cc1ccc(C(=O)NC2CC2)cc1-c1ccc2c(=O)n(CC3CC3)cc(C(=O)N3CC[C@H](N)C3)c2c1` [Example 43, (S)-3-(4-(3-Aminopyrrolidine-1-carbonyl)-2-(cyclopropylmethyl)-1-oxo-1,2-dihydroisoquinolin-6-yl)-N-cyclopropyl-4-methylbenzamide], the IC50 was 5.01 nM.

In the case of `Cc1ccc(C(=O)NC2CC2)cc1-c1ccc2c(=O)n(CC3CC3)cc(C(=O)NCCCN3CCCC3)c2c1` [Example 44, 6-(5-(Cyclopropylcarbamoyl)-2-methylphenyl)-2-(cyclopropylmethyl)-1-oxo-N-(3-(pyrrolidin-1-yl)propyl)-1,2-dihydroisoquinoline-4-carboxamide], the IC50 is 25.1 nM. As for `Cc1ccc(C(=O)NC2CC2)cc1-c1ccc2c(=O)n(CC3CC3)cc(C(=O)N3CCC(N(C)C)CC3)c2c1` [Example 45, N-Cyclopropyl-3-(2-(cyclopropylmethyl)-(4-(dimethylamino)piperidine-1-carbonyl)-1-oxo-1,2-dihydroisoquinolin-6-yl)-4-methylbenzamide], the IC50 was 2.51 nM. As for `Cc1ccc(C(=O)NC2CC2)cc1-c1ccc2c(=O)n(CC3CC3)cc(C(=O)N3CCN(CCN(C)C)CC3)c2c1` [Example 46, N-Cyclopropyl-3-(2-(cyclopropylmethyl)-4-(4-(2-(dimethylamino)ethyl)piperazine-1-carbonyl)-1-oxo-1,2-dihydroisoquinolin-6-yl)-methylbenzamide], the figure is 25.1 nM. Next, `Cc1ccc(C(=O)NC2CC2)cc1-c1ccc2c(=O)n(Cc3ccccc3)cc(C(=O)NCCN3CCCCC3)c2c1` [Example 48, 2-Benzyl-6-(5-(cyclopropylcarbamoyl)-2-methylphenyl)-1-oxo-N-(2-(piperidin-1-yl)ethyl)-1,2-dihydroisoquinoline-4-carboxamide]: 2.51 nM; `Cc1ccc(C(=O)NC2CC2)cc1-c1ccc2c(=O)n(Cc3ccccc3)cc(C(=O)NCCN3CCCC3)c2c1` [Example 49, 2-Benzyl-6-{5-[(cyclopropylamino)carbonyl]-2-methylphenyl}-1-oxo-N-(2-pyrrolidin-1-ylethyl)-1,2-dihydroisoquinoline-4-carboxamide]: 3.16 nM. As to `Cc1ccc(C(=O)NC2CC2)cc1-c1ccc2c(=O)n(Cc3ccccc3)cc(C(=O)NC3CCN(C)CC3)c2c1` [Example 50, 2-Benzyl-6-{5-[(cyclopropylamino)carbonyl]-2-methylphenyl}-N-(1-methylpiperidin-4-yl)-1-oxo-1,2-dihydroisoquinoline-4-carboxamide], the IC50 is 2 nM.

With `Cc1ccc(C(=O)NC2CC2)cc1-c1ccc2c(=O)n(Cc3ccccc3)cc(C(=O)NCCCN(C)C)c2c1` [Example 51, 2-Benzyl-6-{5-[(cyclopropylamino)carbonyl]-2-methylphenyl}-N-[3-(dimethylamino)propyl]-1-oxo-1,2-dihydroisoquinoline-4-carboxamide], the IC50 was 2 nM. `Cc1ccc(C(=O)NC2CC2)cc1-c1ccc2c(=O)n(Cc3ccccc3)cc(C(=O)N3CCN(CCO)CC3)c2c1` [Example 52, 3-(2-Benzyl-4-{[4-(2-hydroxyethyl)piperazin-1-yl]carbonyl}-1-oxo-1,2-dihydroisoquinolin-6-yl)-N-cyclopropyl-4-methylbenzamide]: the IC50 is 10 nM. Next, `Cc1ccc(C(=O)NC2CC2)cc1-c1ccc2c(=O)n(Cc3ccccc3)cc(C(=O)N3CC[C@@H](N)C3)c2c1` [Example 53, (R)-3-(4-(3-Aminopyrrolidine-1-carbonyl)-2-benzyl-1-oxo-1,2-dihydroisoquinolin-6-yl)-N-cyclopropyl-4-methylbenzamide]: 2 nM.

The values are drawn from patent US8012979B2, “Compounds and their uses 707” (AstraZeneca AB, priority 2007, dated 2011).
